Experimental data from patent US10758744B2, “Combination of an oxidant and a photoactivator for the wounds” (KLOX TECHNOLOGIES INC., priority 2008, dated 2020).

Tested on: Hep G2 human hepatocellular carcinoma cells
Conditions: 24 hours, 0.001 to 100 μM, compared to untreated cells
Method: Hep G2 cells were treated for 24 hours with increasing concentrations (0.001 to 100 μM) of Eosin Y, or left untreated (CTL).
Hep G2 cells were treated for 24 hours with increasing concentrations (0.001 to 100 μM) of Erythrosine B, or left untreated (CTL). Staurosporine (STS) was used as a positive control inducing cellular mortality.
The toxicity of the photoactivators Eosin Y and Erythrosine B was evaluated by measuring the cytotoxicity of these compounds on human cells. Hep G2 human hepatocellular carcinoma cells with an epithelial morphology were treated for 24 hours with increasing concentrations (0.001 to 100 μM) of Eosin Y or Erythrosine B, and the cellular survival was evaluated.

For `CN[C@@H]1C[C@H]2O[C@@](C)([C@@H]1OC)n1c3ccccc3c3c4c(c5c6ccccc6n2c5c31)C(=O)NC4` [Staurosporine], the cellular viability was “caused a dose-dependent effect”.
